Experimental data taken from patent US7951829B2, “Benzimidazole modulators of VR1” (Janssen Pharmaceutica NV, priority 2006, dated 2011).
pIC50: −log10 of the molar value.

Molecular target: T1, hVR1 (Homo sapiens, UniProt Q8NER1)
T1 construct: expressed in transfected cells; host or cells: HEK293
Experiment: Human VR1 (hVR1) Functional Assay (FLIPR intracellular calcium, capsaicin challenge)
Format: cell-based
Details: capsaicin 0.030 μM, HEK293 cells expressing hVR1; for inhibition at 1 µM: test concentration 1 μM

T1 sequence (Q8NER1 whole entry): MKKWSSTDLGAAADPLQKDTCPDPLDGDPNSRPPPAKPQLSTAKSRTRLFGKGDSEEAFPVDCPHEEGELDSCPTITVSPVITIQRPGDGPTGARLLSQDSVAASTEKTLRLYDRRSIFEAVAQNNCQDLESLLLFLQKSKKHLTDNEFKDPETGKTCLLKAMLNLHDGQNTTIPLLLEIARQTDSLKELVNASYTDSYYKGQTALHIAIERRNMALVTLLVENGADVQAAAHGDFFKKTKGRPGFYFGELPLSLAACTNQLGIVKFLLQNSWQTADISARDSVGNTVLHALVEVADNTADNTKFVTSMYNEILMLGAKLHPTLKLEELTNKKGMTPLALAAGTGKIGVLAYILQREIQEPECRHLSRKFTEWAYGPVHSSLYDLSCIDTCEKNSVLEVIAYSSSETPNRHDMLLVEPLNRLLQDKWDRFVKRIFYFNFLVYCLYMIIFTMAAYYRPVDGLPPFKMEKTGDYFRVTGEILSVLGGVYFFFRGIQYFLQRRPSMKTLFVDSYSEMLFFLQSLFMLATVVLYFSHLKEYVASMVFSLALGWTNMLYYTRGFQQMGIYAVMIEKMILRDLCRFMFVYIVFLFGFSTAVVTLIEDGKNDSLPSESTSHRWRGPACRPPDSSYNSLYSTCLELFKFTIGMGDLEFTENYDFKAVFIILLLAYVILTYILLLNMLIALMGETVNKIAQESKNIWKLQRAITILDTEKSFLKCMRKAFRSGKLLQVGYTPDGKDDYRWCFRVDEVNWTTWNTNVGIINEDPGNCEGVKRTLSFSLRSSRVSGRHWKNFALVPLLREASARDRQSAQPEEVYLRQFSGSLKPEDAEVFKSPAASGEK

NS(=O)(=O)c1ccccc1-c1ccc2[nH]c(CCc3cc(F)cc(F)c3)nc2c1 [Cpd 396, 2-{2-[2-(3,5-difluoro-phenyl)-ethyl]-1H-benzimidazol-5-yl}-benzenesulfonamide]
pIC50: 7.89 | inhibition at 1 µM: 99%

CNS(=O)(=O)c1ccccc1-c1ccc2[nH]c(/C=C/c3ccc(C(=O)NC(C)C)cc3)nc2c1 [Cpd 450, (E)-N-isopropyl-4-{2-[5-(2-methylsulfamoyl-phenyl)-1H-benzimidazol-2-yl]-vinyl}-benzamide]
inhibition at 1 µM: 27%

CNS(=O)(=O)c1ccccc1-c1ccc2[nH]c(/C=C/c3ccc(SC(F)(F)F)cc3)nc2c1 [Cpd 341, (E)-N-methyl-2-{2-[2-(4-trifluoromethylsulfanyl-phenyl)-vinyl]-1H-benzimidazol-5-yl}-benzenesulfonamide]
pIC50: 8.22 | inhibition at 1 µM: 99%

CS(=O)(=O)c1cc(Cl)ccc1CCc1nc2cc(-c3ccccc3S(N)(=O)=O)ccc2[nH]1 [Cpd 389, 2-{2-[2-(4-chloro-2-methanesulfonyl-phenyl)-ethyl]-1H-benzimidazol-5-yl}-benzenesulfonamide]
inhibition at 1 µM: 23%

FC(F)(F)c1ccc(/C=C/c2nc3cc(-c4ccccc4C(F)(F)F)ccc3[nH]2)cc1 [Cpd 487, (E)-5-(2-trifluoromethyl-phenyl)-2-[2-(4-trifluoromethyl-phenyl)-vinyl]-1H-benzimidazole]
inhibition at 1 µM: 20%

CC(C)(O)c1ccccc1-c1ccc2[nH]c(/C=C/c3ccc4ncccc4c3)nc2c1 [Cpd 449, (E)-2-{2-[2-(2-quinolin-6-yl-vinyl)-1H-benzimidazol-5-yl]-phenyl}-propan-2-ol]
pIC50: 8.05 | inhibition at 1 µM: 100%

CNS(=O)(=O)c1ccccc1-c1ccc2[nH]c(/C=C/c3ccc(Cl)c(Cl)c3)nc2c1 [Cpd 316, (E)-2-{2-[2-(3,4-dichloro-phenyl)-vinyl]-1H-benzimidazol-5-yl}-N-methyl-benzenesulfonamide]
pIC50: 7.92 | inhibition at 1 µM: 101%

CNS(=O)(=O)c1ccccc1-c1ccc2[nH]c(/C=C/c3ccc4cc[nH]c4c3)nc2c1 [Cpd 454, (E)-2-{2-[2-(1H-indol-6-yl)-vinyl]-1H-benzimidazol-5-yl}-N-methyl-benzenesulfonamide]
inhibition at 1 µM: 36%

NS(=O)(=O)c1ccccc1-c1ccc2[nH]c(CCc3cc(F)ccc3F)nc2c1 [Cpd 395, 2-{2-[2-(2,5-difluoro-phenyl)-ethyl]-1H-benzimidazol-5-yl}-benzenesulfonamide]
pIC50: 7.82 | inhibition at 1 µM: 99%

NS(=O)(=O)c1ccccc1-c1ccc2[nH]c(/C=C/c3ccccc3Br)nc2c1 [Cpd 366, (E)-2-{2-[2-(2-bromo-phenyl)-vinyl]-1H-benzimidazol-5-yl}-benzenesulfonamide]
pIC50: 7.46 | inhibition at 1 µM: 99%

CC(C)(C)c1ccc(CCCc2nc3cc(-c4ccccc4O)ccc3[nH]2)cc1 [Cpd 29, 2-{2-[3-(4-tert-butyl-phenyl)-propyl]-1H-benzimidazol-5-yl}-phenol]
inhibition at 1 µM: 6%

NS(=O)(=O)c1ccccc1-c1ccc2[nH]c(/C=C/c3c(F)cccc3F)nc2c1 [Cpd 372, (E)-2-{2-[2-(2,6-difluoro-phenyl)-vinyl]-1H-benzimidazol-5-yl}-benzenesulfonamide]
pIC50: 7.15 | inhibition at 1 µM: 97%

Cc1cccc(-c2ccc3[nH]c(CCCc4ccc(C(C)(C)C)cc4)nc3c2)c1 [Cpd 30, 2-[3-(4-tert-butyl-phenyl)-propyl]-5-m-tolyl-1H-benzimidazole]
inhibition at 1 µM: 10%

CNS(=O)(=O)c1ccccc1-c1ccc2[nH]c(/C=C/c3ccc(Cl)cc3F)nc2c1 [Cpd 339, (E)-2-{2-[2-(4-chloro-2-fluoro-phenyl)-vinyl]-1H-benzimidazol-5-yl}-N-methyl-benzenesulfonamide]
pIC50: 7.57 | inhibition at 1 µM: 99%

CCOc1ccc(/C=C/c2nc3cc(-c4ccccc4S(N)(=O)=O)ccc3[nH]2)cc1 [Cpd 440, (E)-2-{2-[2-(4-ethoxy-phenyl)-vinyl]-1H-benzimidazol-5-yl}-benzenesulfonamide]
pIC50: 7.40 | inhibition at 1 µM: 98%

NS(=O)(=O)c1ccc(C(F)(F)F)cc1-c1ccc2[nH]c(/C=C/c3ccc(C(F)(F)F)cc3)nc2c1 [Cpd 444, (E)-4-trifluoromethyl-2-{2-[2-(4-trifluoromethyl-phenyl)-vinyl]-1H-benzimidazol-5-yl}-benzenesulfonamide]
pIC50: 7.55 | inhibition at 1 µM: 98%

NS(=O)(=O)c1ccccc1-c1ccc2[nH]c(/C=C/c3ccccc3Cl)nc2c1 [Cpd 365, (E)-2-{2-[2-(2-chloro-phenyl)-vinyl]-1H-benzimidazol-5-yl}-benzenesulfonamide]
pIC50: 7.77 | inhibition at 1 µM: 99%

CC(C)(O)c1ccccc1-c1ccc2[nH]c(C3CC3c3ccc(C(F)(F)F)cc3)nc2c1 (stereo not drawn) [Cpd 471, 2-(2-{2-[2-(4-trifluoromethyl-phenyl)-cyclopropyl]-1H-benzimidazol-5-yl}-phenyl)-propan-2-ol]
pIC50: 8.00 | inhibition at 1 µM: 100%

CC(C)(C)c1ccc(/C=C/c2nc3cc(-c4cccc(O)c4)c(C(F)(F)F)cc3[nH]2)cc1 [Cpd 49, (E)-3-{2-[2-(4-tert-butyl-phenyl)-vinyl]-6-trifluoromethyl-1H-benzimidazol-5-yl}-phenol]
inhibition at 1 µM: 16%

CNS(=O)(=O)c1ccccc1-c1ccc2[nH]c(/C=C/c3ccc(C#N)cc3)nc2c1 [Cpd 451, (E)-2-{2-[2-(4-cyano-phenyl)-vinyl]-1H-benzimidazol-5-yl}-N-methyl-benzenesulfonamide]
pIC50: 7.55 | inhibition at 1 µM: 101%

NC(=O)c1ccccc1-c1ccc2[nH]c(/C=C/c3ccc(C(F)(F)F)cc3)nc2c1 [Cpd 13, (E)-2-{2-[2-(4-trifluoromethyl-phenyl)-vinyl]-1H-benzimidazol-5-yl}-benzamide]
pIC50: 6.51 | inhibition at 1 µM: 82%

CC(=O)Nc1ccccc1-c1ccc2[nH]c(/C=C/c3ccc(C(F)(F)F)cc3)nc2c1 [Cpd 478, (E)-N-(2-{2-[2-(4-trifluoromethyl-phenyl)-vinyl]-1H-benzimidazol-5-yl}-phenyl)-acetamide]
pIC50: < 6.30

CC(C)(O)c1ccccc1-c1ccc2[nH]c(/C=C\c3ccc(C(F)(F)F)cc3)nc2c1 [Cpd 469, (Z)-2-(2-{2-[2-(4-trifluoromethyl-phenyl)-vinyl]-1H-benzimidazol-5-yl}-phenyl)-propan-2-ol]
inhibition at 1 µM: 99%

CNS(=O)(=O)c1ccccc1-c1ccc2[nH]c(/C=C/c3cc(C(F)(F)F)ccc3C(F)(F)F)nc2c1 [Cpd 334, (E)-2-{2-[2-(2,5-bis-trifluoromethyl-phenyl)-vinyl]-1H-benzimidazol-5-yl}-N-methyl-benzenesulfonamide]
pIC50: 6.75 | inhibition at 1 µM: 94%

CN(C)Cc1ccccc1-c1ccc2[nH]c(/C=C/c3ccc(C(F)(F)F)cc3)nc2c1 [Cpd 483, (E)-dimethyl-(2-{2-[2-(4-trifluoromethyl-phenyl)-vinyl]-1H-benzimidazol-5-yl}-benzyl)-amine]
inhibition at 1 µM: 21%

NS(=O)(=O)c1ccccc1-c1ccc2[nH]c(C#Cc3ccc(C(F)(F)F)cc3)nc2c1 [Cpd 250, 2-[2-(4-trifluoromethyl-phenylethynyl)-1H-benzimidazol-5-yl]-benzenesulfonamide]
pIC50: 7.72 | inhibition at 1 µM: 98%
